For nine molecules, inhibition results are on record in patent US9260429B2, “Pyrido[3,4-B]indoles and methods of use” (Medivation Technologies, Inc., priority 2008, dated 2016).

Assay [1] has as its target T1, human recombinant serotonin (5-Hydroxytryptamine) 5-HT7 receptor (Homo sapiens, UniProt P34969).
T1 construct: expressed in transfected cells; host or cells: CHO cells
Kind of assay: Serotonin 5-HT7 radioligand binding ([3H]LSD). The settings on record: 2 h; read-out: Percent Inhibition of ligand binding Serotonin (1 μM ligand concentration) 5-HT7. Here is the method: To evaluate in radioligand binding assays the activity of compounds of the invention, human recombinant serotonin (5-Hydroxytryptamine) 5-HT7 receptor expressed in Chinese hamster ovary (CHO) cells (Roth, B. L. et al., J. Pharmacol. Exp. Ther. 268:1403, 1994; Shen, Y. et al., J. Biol. Chem. 268:18200, 1993) in a modified Tris-HCl buffer (50 mM Tris-HCl, pH 7.4, 10 mM MgCl2, 0.5 mM EDTA) was used. Compounds of invention were incubated with 5.5 nM [^3H]Lysergic acid diethylamide (LSD) for 2 hours at 25° C. Non-specific binding was estimated in the presence of […] Serotonin (5-HT). Receptor proteins were filtered and washed, the filters were then counted to determine [^3H]LSD specifically bound. Compounds were screened at 1 μM or lower, using 1% DMSO as vehicle. Biochemical assay results are presented as the percent inhibition of specific binding in Table 5.

The target in assay [2] is T2, human recombinant serotonin (5-Hydroxytryptamine) 5-HT2A receptor (Homo sapiens, UniProt P28223).
T2 construct: expressed in transfected cells; host or cells: CHO-K1 cells
T2 sequence (P28223 whole entry): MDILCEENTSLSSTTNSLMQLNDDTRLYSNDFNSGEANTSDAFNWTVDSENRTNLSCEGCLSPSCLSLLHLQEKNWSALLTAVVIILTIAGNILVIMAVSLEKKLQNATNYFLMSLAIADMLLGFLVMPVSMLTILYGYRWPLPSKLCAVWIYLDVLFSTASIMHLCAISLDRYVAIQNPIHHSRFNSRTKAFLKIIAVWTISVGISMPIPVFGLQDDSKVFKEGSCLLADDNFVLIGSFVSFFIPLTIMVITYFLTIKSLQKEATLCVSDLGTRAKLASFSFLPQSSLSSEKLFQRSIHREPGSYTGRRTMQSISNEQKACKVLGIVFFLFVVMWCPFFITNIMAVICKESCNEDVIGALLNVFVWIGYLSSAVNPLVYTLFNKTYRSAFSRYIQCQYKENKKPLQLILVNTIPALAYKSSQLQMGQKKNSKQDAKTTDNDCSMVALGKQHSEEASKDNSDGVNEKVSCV
As to the kind of experiment: Serotonin 5-HT2A radioligand binding ([3H]Ketanserin). The settings on record: 1 h; read-out: Percent Inhibition of ligand binding Serotonin (1 μM ligand concentration) 5-HT2A. As for the experimental part: To evaluate in radioligand binding assays the activity of compounds of the invention, human recombinant serotonin (5-Hydroxytryptamine) 5-HT2A receptor expressed in Chinese hamster ovary (CHO-K1) cells (Bonhaus, D. W. et al. Br. J. Pharmacol. 115:622, 1995; Saucier, C. and Albert, P. R., J. Neurochem. 68:1998, 1997) in a 50 mM Tris-HCl buffer, pH 7.4, was used. Compounds of the invention were incubated with 0.5 nM [^3H]Ketanserin for 60 minutes at 25° C. Non-specific binding was estimated in the presence of 1 μM Mianserin. Receptor proteins were filtered and washed, the filters were then counted to determine [^3H]Ketanserin specifically bound. Compounds were screened at 1 μM or lower, using 1% DMSO as vehicle. Biochemical assay results are presented as the percent inhibition of specific binding in Table 5.

The target of assay [3] is T3, human recombinant histamine H2 receptor (Homo sapiens, UniProt P25021).
T3 construct: expressed in transfected cells; host or cells: CHO-K1 cells
T3 sequence (P25021 whole entry): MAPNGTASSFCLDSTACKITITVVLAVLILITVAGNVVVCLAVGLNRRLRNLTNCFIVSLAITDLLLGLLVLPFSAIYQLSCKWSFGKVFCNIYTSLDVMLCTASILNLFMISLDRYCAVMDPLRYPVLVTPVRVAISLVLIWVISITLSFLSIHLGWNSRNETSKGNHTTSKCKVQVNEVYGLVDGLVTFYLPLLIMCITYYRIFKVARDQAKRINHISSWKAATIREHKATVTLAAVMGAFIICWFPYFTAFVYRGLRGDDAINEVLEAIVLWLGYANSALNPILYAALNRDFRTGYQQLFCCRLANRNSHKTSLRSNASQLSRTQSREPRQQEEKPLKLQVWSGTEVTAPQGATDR
As to the kind of experiment: Histamine H2 radioligand binding ([125I]Aminopotentidine). Particulars: 1 μM; inhibition of specific [125I]Aminopotentidine binding; read-out: Binding data (Percentage Inhibition) Histamine Binding (1 μM) H2. Here is the method:
To evaluate in radioligand binding assays the activity of compounds of the invention, human recombinant histamine H2 receptor expressed in Chinese hamster ovary (CHO) K1 cells (Ruat, M., Proc. Natl. Acad. Sci. USA. 87(5):1658, 1990) in a 50 mM Phosphate buffer, pH 7.4 was used. Compounds of the invention were incubated with 0.1 nM [^125I]Aminopotentidine for 120 minutes at 25° C. Non-specific binding was estimated in the presence of 3 μM Tiotidine. Receptor proteins were filtered and washed, the filters were then counted to determine [^125I]Aminopotentidine specifically bound. Compounds were screened at 1 μM or lower, using 1% DMSO as vehicle. Biochemical assay results are presented as the percent inhibition of specific binding in Table 3.

Assay [4] deals with T4, human recombinant serotonin (5-Hydroxytryptamine) 5-HT6 receptor (Homo sapiens, UniProt P50406).
T4 construct: expressed in transfected cells; host or cells: human HeLa cells
T4 sequence (P50406 whole entry): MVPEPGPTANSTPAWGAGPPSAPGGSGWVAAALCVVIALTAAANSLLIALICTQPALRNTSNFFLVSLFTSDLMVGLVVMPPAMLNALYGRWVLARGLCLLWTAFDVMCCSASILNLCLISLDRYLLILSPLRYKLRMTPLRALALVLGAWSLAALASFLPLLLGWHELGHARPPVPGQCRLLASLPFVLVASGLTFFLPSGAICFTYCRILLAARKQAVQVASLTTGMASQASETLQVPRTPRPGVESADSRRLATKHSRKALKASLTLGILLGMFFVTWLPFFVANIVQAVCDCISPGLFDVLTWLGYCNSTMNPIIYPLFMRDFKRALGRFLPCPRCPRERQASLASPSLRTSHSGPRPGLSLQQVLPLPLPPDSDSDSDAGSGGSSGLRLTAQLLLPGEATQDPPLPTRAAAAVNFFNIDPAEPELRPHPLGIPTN
Kind of assay: Serotonin 5-HT6 radioligand binding ([3H]LSD). Particulars: 2 h; read-out: Percent Inhibition of ligand binding Serotonin (1 μM ligand concentration) 5-HT6. Here is the method: To evaluate in radioligand binding assays the activity of compounds of the invention, human recombinant serotonin (5-Hydroxytryptamine) 5-HT6 receptor expressed in human HeLa cells (Monsma, F. J. Jr. et al., Mol. Pharmacol. 43:320, 1993) in a modified Tris-HCl buffer (50 mM Tris-HCl, pH 7.4, 150 mM NaCl, 2 mM Ascorbic Acid, 0.001% BSA) was used. Compounds of the invention were incubated with 1.5 nM [3H]Lysergic acid diethylamide (LSD) for 120 minutes at 37° C. Non-specific binding was estimated in the presence of […] Serotonin (5-HT). Receptor proteins were filtered and washed, the filters were then counted to determine [3H]LSD specifically bound. Compounds were screened at 1 μM or lower, using 1% DMSO as vehicle. Biochemical assay results are presented as the percent inhibition of specific binding in Table 5.

Assay [5] addresses T5, human recombinant histamine H1 receptor (Homo sapiens, UniProt P35367).
T5 construct: expressed in transfected cells; host or cells: CHO cells
As to the kind of experiment: Histamine H1 radioligand binding ([3H]Pyrilamine). Particulars: 1 μM; read-out: Binding data (Percentage Inhibition) Histamine Binding (1 μM) H1. As for the experimental part: To evaluate in radioligand binding assays the activity of compounds of the invention, human recombinant histamine H1 receptor expressed in Chinese hamster ovary (CHO) cells (De Backer, M. D. et al., Biochem. Biophys. Res. Comm. 197(3):1601, 1993) in a modified Tris-HCl buffer (50 mM Tris-HCl, pH 7.4, 2 mM MgCl2, 100 mM NaCl, 250 mM Sucrose) was used. Compounds of the invention were incubated with 1.2 nM [^3H]Pyrilamine for 180 minutes at 25° C. Non-specific binding was estimated in the presence of 1 μM pyrilamine. Receptor proteins were filtered and washed, the filters were then counted to determine [^3H]Pyrilamine specifically bound. […] Biochemical assay results are presented as the percent inhibition of specific binding in Table 3.

Assay [6] addresses T6, human recombinant serotonin (5-Hydroxytryptamine) 5-HT2C receptor (Homo sapiens, UniProt P28335).
T6 construct: expressed in transfected cells; host or cells: CHO-K1 cells
T6 sequence (P28335 33-458): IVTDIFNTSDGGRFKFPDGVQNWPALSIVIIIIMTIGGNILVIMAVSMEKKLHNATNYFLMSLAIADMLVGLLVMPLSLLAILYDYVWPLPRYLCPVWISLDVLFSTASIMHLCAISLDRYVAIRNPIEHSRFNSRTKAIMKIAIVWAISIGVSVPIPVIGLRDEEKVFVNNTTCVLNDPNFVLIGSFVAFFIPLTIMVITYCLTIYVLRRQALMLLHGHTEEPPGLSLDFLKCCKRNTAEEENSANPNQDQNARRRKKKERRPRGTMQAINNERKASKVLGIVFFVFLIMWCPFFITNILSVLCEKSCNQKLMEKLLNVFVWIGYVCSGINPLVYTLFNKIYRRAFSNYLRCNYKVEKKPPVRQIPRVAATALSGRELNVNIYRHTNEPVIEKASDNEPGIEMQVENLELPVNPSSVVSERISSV
As to the kind of experiment: Serotonin 5-HT2C radioligand binding ([3H]Mesulergine). The settings on record: 1 h; read-out: Percent Inhibition of ligand binding Serotonin (1 μM ligand concentration) 5-HT2C. As for the experimental part:
Compounds of the invention were incubated with 1 nM [^3H]Mesulergine for 60 minutes at 25° C. Non-specific binding was estimated in the presence of 1 μM Mianserin. Receptor proteins were filtered and washed, the filters were then counted to determine [^3H]Mesulergine specifically bound. […] Biochemical assay results are presented as the percent inhibition of specific binding in Table 5.

Assay [7] concerns the target T7, human recombinant dopamine D2L receptor (Homo sapiens, UniProt P14416).
T7 construct: expressed in transfected cells; host or cells: CHO cells
Kind of assay: Dopamine D2L radioligand binding ([3H]Spiperone). The settings on record: 2 h, 1 μM ligand conc.; read-out: Percent Inhibition of ligand binding Dopamine (1 μM ligand conc.) D2L. Here is the method: To evaluate in radioligand binding assays the activity of compounds of the invention, human recombinant dopamine D2L receptor expressed in Chinese hamster ovary (CHO) cells (Grandy, D. K. et al. Proc. Natl. Acad. Sci. USA. 86:9762, 1989; Hayes, G. et al., Mol. Endocrinol. 6:920, 1992) in a modified Tris-HCl buffer (50 mM Tris-HCl, pH 7.4, 1.4 mM Ascorbic Acid, 0.001% BSA, 150 mM NaCl) was used. Compounds of the invention were incubated with 0.16 nM [^3H]Spiperone for 120 minutes at 25° C. Non-specific binding was estimated in the presence of […] Haloperidol. Receptor proteins were filtered and washed, the filters were then counted to determine [^3H]Spiperone specifically bound. Compounds were screened at 1 μM or lower, using 1% DMSO as vehicle. Biochemical assay results are presented as the percent inhibition of specific binding in Table 4.

T7 sequence (P14416 whole entry): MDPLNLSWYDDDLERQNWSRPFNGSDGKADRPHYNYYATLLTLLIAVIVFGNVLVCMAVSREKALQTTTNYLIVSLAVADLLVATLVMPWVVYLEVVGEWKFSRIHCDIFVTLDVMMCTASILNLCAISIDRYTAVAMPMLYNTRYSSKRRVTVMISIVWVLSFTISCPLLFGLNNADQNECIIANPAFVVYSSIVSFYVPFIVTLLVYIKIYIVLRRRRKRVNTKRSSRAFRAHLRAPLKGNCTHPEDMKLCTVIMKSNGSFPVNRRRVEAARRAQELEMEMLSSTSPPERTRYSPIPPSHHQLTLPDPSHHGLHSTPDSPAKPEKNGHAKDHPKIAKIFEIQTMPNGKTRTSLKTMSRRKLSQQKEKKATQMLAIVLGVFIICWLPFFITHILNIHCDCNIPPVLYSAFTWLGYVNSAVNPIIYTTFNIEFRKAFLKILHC
T5 sequence (P35367 whole entry): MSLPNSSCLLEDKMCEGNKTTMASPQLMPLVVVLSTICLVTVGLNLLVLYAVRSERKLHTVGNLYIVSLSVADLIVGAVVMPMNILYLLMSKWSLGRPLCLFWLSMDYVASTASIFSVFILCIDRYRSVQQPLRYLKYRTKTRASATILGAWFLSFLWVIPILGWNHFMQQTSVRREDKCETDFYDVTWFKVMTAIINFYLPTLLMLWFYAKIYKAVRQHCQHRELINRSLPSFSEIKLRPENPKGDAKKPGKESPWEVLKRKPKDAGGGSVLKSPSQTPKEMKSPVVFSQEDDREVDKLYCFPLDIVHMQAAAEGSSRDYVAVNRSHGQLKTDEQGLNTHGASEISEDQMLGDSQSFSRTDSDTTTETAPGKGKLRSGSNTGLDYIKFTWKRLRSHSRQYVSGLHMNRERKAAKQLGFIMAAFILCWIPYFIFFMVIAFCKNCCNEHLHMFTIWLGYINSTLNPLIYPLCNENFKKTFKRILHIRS
T1 sequence (P34969 whole entry): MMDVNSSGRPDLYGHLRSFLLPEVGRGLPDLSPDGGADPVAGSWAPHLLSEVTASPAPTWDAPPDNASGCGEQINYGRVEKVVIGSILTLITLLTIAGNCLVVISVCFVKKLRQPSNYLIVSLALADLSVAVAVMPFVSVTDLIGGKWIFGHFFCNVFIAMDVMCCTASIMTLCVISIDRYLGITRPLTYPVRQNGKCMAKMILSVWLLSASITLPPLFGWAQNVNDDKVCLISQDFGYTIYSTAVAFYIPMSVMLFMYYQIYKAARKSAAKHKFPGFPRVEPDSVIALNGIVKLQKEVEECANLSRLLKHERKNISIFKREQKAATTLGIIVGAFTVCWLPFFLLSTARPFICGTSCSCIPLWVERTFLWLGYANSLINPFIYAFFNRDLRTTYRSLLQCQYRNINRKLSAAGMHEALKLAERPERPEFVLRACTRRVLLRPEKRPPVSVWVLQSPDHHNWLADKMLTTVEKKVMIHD

Turning to `CCC1c2c(c3cc(Cl)ccc3n2/C=C(\C)c2ccc(Cl)c(Cl)c2)CCN1C` (stereo not drawn) [Compound 116, 6-chloro-9-(2-(3,4-dichlorophenyl)prop-1-enyl)-1-ethyl-2-methyl-2,3,4,9-tetrahydro-1H-pyrido[3,4-b]indole], the inhibition at 1 µM is 51% in assay [1]; 83% in assay [2]; 50% in assay [3]; 38% in assay [4]; 8% in assay [5]; 85% in assay [6]. For the same molecule, in assay [7], the inhibition at 1 µM worked out at 0%.
For `COc1ccc(/C(C)=C/n2c3c(c4cc(C)ccc42)CCN(C)C3)cc1F` [Compound 121, 9-(2-(3-fluoro-4-methoxyphenyl)prop-1-enyl)-2,6-dimethyl-2,3,4,9-tetrahydro-1H-pyrido[3,4-b]indole], the inhibition at 1 µM in assay [1] worked out at 94%; in assay [2] it was 96%; in assay [3], 50%; in assay [4], 33%; in assay [5] it was 9%; in assay [6], 102%. In addition, the inhibition at 1 µM in assay [7] was determined as 21%.
Regarding `COc1ccc(/C(C)=C/n2c3c(c4cc(Cl)ccc42)CCN(C)C3)cc1F` [Compound 122, 6-chloro-9-(2-(3-fluoro-4-methoxyphenyl)prop-1-enyl)-2-methyl-2,3,4,9-tetrahydro-1H-pyrido[3,4-b]indole], the inhibition at 1 µM was 95% in assay [1]; 95% in assay [2]; 56% in assay [3]; 36% in assay [4]; 13% in assay [5]; 102% in assay [6]. In addition, the inhibition at 1 µM in assay [7] stood at 21%.
In the case of `Cc1ccc2c(c1)c1c(n2C#Cc2ccc(Cl)cc2)CN(C)CC1` [Compound 130, 9-((4-chlorophenyl)ethynyl)-2,6-dimethyl-2,3,4,9-tetrahydro-1H-pyrido[3,4-b]indole], the inhibition at 1 µM in assay [1] was found to be 22%; in assay [2], 91%; in assay [3] it was 51%; in assay [4], 7%; in assay [5] it was 5%; in assay [6] it was 95%. The inhibition at 1 µM in assay [7] is -3%.
Regarding `COc1ccc(C#Cn2c3c(c4cc(Cl)ccc42)CCN(C)C3)cc1F` [Compound 155, 6-chloro-9-((3-fluoro-4-methoxyphenyl)ethynyl)-2-methyl-2,3,4,9-tetrahydro-1H-pyrido[3,4-b]indole], the inhibition at 1 µM in assay [1] came out at 19%; in assay [2] it was 85%; in assay [3], 49%; in assay [4], 14%; in assay [5] it was 2%; in assay [6], 95%. Further, the inhibition at 1 µM in assay [7] stood at 12%.
Regarding `C/C(=C/n1c2c(c3cc(C)ccc31)CCN(C)C2C)c1ccc(Cl)cc1Cl` (stereo not drawn) [Compound 169], the inhibition at 1 µM in assay [1] is 78%; in assay [2], 80%; in assay [3] it was 50%; in assay [4], 24%; in assay [5], 20%; in assay [6], 91%. For the same molecule, the inhibition at 1 µM in assay [7] was 5%.
For the molecule `CCC1c2c(c3cc(C)ccc3n2/C=C(\C)c2ccc(Cl)cc2Cl)CCN1C` (stereo not drawn) [Compound 170], the inhibition at 1 µM in assay [1] was found to be 74%; in assay [2] it was 96%; in assay [3], 60%; in assay [4], 36%; in assay [5], 27%; in assay [6], 98%. Further, the inhibition at 1 µM in assay [7] was 1%.
As to `CCC1c2c(c3cc(Cl)ccc3n2C(=O)Cc2ccc(F)cc2)CCN1C` (stereo not drawn) [Compound 171], the inhibition at 1 µM in assay [1] is 13%; in assay [2] it was 80%; in assay [3], 17%; in assay [4], 36%; in assay [5] it was 15%; in assay [6], 92%. Moreover, the inhibition at 1 µM in assay [7] was found to be 5%.
As for `Cc1ccc2c(c1)c1c(n2C#Cc2ccc(Cl)cc2)C(C)N(C)CC1` (stereo not drawn) [Compound 172, 9-((4-chlorophenyl)ethynyl)-1,2,6-trimethyl-2,3,4,9-tetrahydro-1H-pyrido[3,4-b]indole], the inhibition at 1 µM in assay [1] was 1%; in assay [2], 96%; in assay [3], 45%; in assay [4], 10%; in assay [5] it was 11%; in assay [6], 100%. In assay [7], the inhibition at 1 µM came out at 1%.
